The values below come from article PMC6803859, “Structural Basis for the Regulation of PPARγ Activity by Imatinib” (Molecules, 2019).

The Kd is a measure of binding affinity in units of concentration. Low readings indicate higher affinity, high ones lower affinity.

The target of one test is T1, PPARγ WT LBD (Homo sapiens, UniProt P37231).
T1 construct: gene PPARG; LBD, residues 195–477 in PPARγ1 numbering
T1 sequence (P37231 223-505): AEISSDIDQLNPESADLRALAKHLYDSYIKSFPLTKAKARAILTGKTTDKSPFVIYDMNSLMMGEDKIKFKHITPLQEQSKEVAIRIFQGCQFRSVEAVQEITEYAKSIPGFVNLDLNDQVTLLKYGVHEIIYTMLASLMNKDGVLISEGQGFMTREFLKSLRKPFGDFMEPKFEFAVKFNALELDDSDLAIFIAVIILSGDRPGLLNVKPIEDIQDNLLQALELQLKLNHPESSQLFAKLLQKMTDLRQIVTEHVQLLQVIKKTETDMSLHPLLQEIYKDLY
Description: SPR (Biacore T200, immobilized LBD). The class given is binding. A general note: Surface plasmon resonance follows binding to a sensor surface in real time, without labels.

The target of a further test is T2, PPARγ R288A mutant LBD (Homo sapiens, UniProt P37231, R316A).
T2 construct: gene PPARG; LBD, residues 195–477 in PPARγ1 numbering
T2 sequence (P37231 223-505 R316A): T1 sequence (P37231 223-505) with R94A
Description: ([…] Å) and SPR (Biacore T200). The class given is binding.

Changes are numbered by the printed parent chain.

On to `Cc1ccc(NC(=O)c2ccc(CN3CCN(C)CC3)cc2)cc1Nc1nccc(-c2cccnc2)n1` [imatinib], for which the Kd is 0.231 µM on PPARγ WT LBD and 0.152 µM at PPARγ R288A mutant LBD.
